Measured values taken from patent publication US4312867A, “Antibacterial compounds, processes for their preparation and compositions containing them” (Beecham Group Limited, priority 1979, dated 1982).
In brackets after ≈: the same amount, converted by molar mass. Read-outs that look alike come from different tables or passages of the source.

Assays:
Type in all cases: cell-based
M alkalescens NCTC 10135 = assay: in vitro anti-mycoplasmal MIC, Friis' agar (Table 3)
Experimental: (§1) The minimum inhibitory concentrations (MIC) of the examples were determined by either:
(§2) or (ii) by serial dilution in Friis' agar medium.

M pneumoniae ATCC 15492 [1] = assay: as above
Experimental: as §1, §2

M pneumoniae 427a [2] = assay: as above
Experimental: as §1, §2

M hyorhinis ATCC 23234 = assay: as above
Experimental: as §1, §2

M hyosynoviae ATCC 25591 = assay: as above
Experimental: as §1, §2

M pulmonis JB [3] = assay: as above
Experimental: as §1, §2

M fermentans MWKL4 [4] = assay: as above
Experimental: as §1, §2

M synoviae ATCC 25204 = assay: as above
Experimental: as §1, §2

M arthritidis ATCC 14124 = assay: as above
Experimental: as §1, §2

[5] = tested on: M bovigenitalium ATCC 14173; assay: as above
Experimental: as §1, §2

M gallisepticum S6 = assay: as above
Experimental: as §1, §2

M pneumoniae ATCC 15492 [6] = assay: in vitro anti-mycoplasmal MIC, Friis' broth (Table 3)
Experimental: as §1
(§3) (i) in Friis' broth using microtitre plates, by modification of the metabolic-inhibition test (Taylor-Robinson, Post Frad, Med. J., 1967, 43, 100).

M pneumoniae 427a [7] = assay: as above
Experimental: as §1, §3

M dispar NCTC 10125 = assay: as above
Experimental: as §1, §3

M pulmonis JB [8] = assay: as above
Experimental: as §1, §3

M fermentans MWKL4 [9] = assay: as above
Experimental: as §1, §3

M suipneumoniae Str 11 = assay: as above
Experimental: as §1, §3

[10] = tested on: M suipneumoniae J2206/183b; assay: as above
Experimental: as §1, §3

M dispar H225 = assay: as above
Experimental: as §1, §3

[11] = tested on: M. suipneumoniae NCTC 10110; assay: anti-mycoplasmal MIC, Friis broth solidified with agarose (Table 4); conditions: Mesomycoplasma hyopneumoniae, NCTC10110, 144 h
M. bovis NCTC 10131 = assay: microbe, parasite or virus in culture; conditions: NCTC10131, 144 h
[12] = tested on: M. suipneumoniae PW/C/210; assay: anti-mycoplasmal MIC, Friis broth solidified with agarose (Table 4); conditions: Mesomycoplasma hyopneumoniae, 144 h, 6 days at 37° C.
M. suipneumoniae NB12 = assay: as above; conditions: Mesomycoplasma hyopneumoniae
M. pneumoniae ATCC 15492 = assay: as above; conditions: Mycoplasmoides pneumoniae, ATCC15492, 144 h, 6 days at 37° C.
[13] = tested on: M. suipneumoniae ATCC 25095; assay: as above; conditions: Mesomycoplasma hyopneumoniae, ATCC25095, 144 h, 6 days at 37° C.
[14] = tested on: M. suipneumoniae J2206/183b; assay: as above; conditions: Mesomycoplasma hyopneumoniae, 144 h, 6 days at 37° C.
M. hyorhinis ATCC 25021 = assay: as above; conditions: Mesomycoplasma hyorhinis, ATCC25021, 144 h, 6 days at 37° C.
M. suipneumoniae UCD1 = assay: as above; conditions: Mesomycoplasma hyopneumoniae, 144 h, 6 days at 37° C.
M. gallisepticum S6 = assay: as above; conditions: Mycoplasmoides gallisepticum
M. suipneumoniae HK(2) = assay: as above; conditions: Mesomycoplasma hyopneumoniae, 144 h, 6 days at 37° C.
[15] = tested on: M. hyosynoviae ATCC 25591; assay: as above; conditions: 144 h
M. hyorhinis ATCC 23234 = assay: as above; conditions: Mesomycoplasma hyorhinis, ATCC23234, 144 h, 6 days at 37° C.
M. suipneumoniae Str. 11 = assay: as above; conditions: Mesomycoplasma hyopneumoniae
B. subtilis ATCC 6633 = assay: MIC veterinary bacteria (Table 2), serial dilution in agar; conditions: diagnostic sensitivity test agar
M. suipneumoniae MS16 = assay: anti-mycoplasmal MIC, Friis broth solidified with agarose (Table 4); conditions: Mesomycoplasma hyopneumoniae
M. suipneumoniae JF435 = assay: as above; conditions: Mesomycoplasma hyopneumoniae
M. suipneumoniae LABER = assay: as above; conditions: Mesomycoplasma hyopneumoniae, 144 h, 6 days at 37° C.
M. dispar NCTC 10125 = assay: as above; conditions: 144 h, 6 days at 37° C.
Experimental: The values were determined in Friis broth solidifed with 0.9% agarose. The inoculum was 10^3 to 10^5 CFV and the MIC's were recorded after 6 days incubation at 37° C.

Row | Compound | MIC (M alkalescens NCTC 10135) [µg/mL] | MIC (M pneumoniae ATCC 15492 [1]) [µg/mL] | MIC (M pneumoniae 427a [2]) [µg/mL] | MIC (M hyorhinis ATCC 23234) [µg/mL] | MIC (M hyosynoviae ATCC 25591) [µg/mL] | MIC (M pulmonis JB [3]) [µg/mL] | MIC (M fermentans MWKL4 [4]) [µg/mL] | MIC (M synoviae ATCC 25204) [µg/mL] | MIC (M arthritidis ATCC 14124) [µg/mL] | MIC [5] [µg/mL] | MIC (M gallisepticum S6) [µg/mL] | MIC (M pneumoniae ATCC 15492 [6]) [µg/mL] | MIC (M pneumoniae 427a [7]) [µg/mL] | MIC (M dispar NCTC 10125) [µg/mL] | MIC (M pulmonis JB [8]) [µg/mL] | MIC (M fermentans MWKL4 [9]) [µg/mL] | MIC (M suipneumoniae Str 11) [µg/mL] | MIC [10] [µg/mL] | MIC (M dispar H225) [µg/mL] | MIC (M. bovis NCTC 10131) [µg/mL] | other results
1 | C/C(=C\C(=O)OCCCCCCS(N)(=O)=O)CC1OCC(CC2OC2C(C)C(C)O)C(O)C1O (stereo not drawn) [Example 2, 6-Sulphamoylhexyl monate A] | < 0.02 | 0.625 (≈ 1.23 µM) | 0.312 (≈ 0.615 µM) | 0.156 (≈ 0.307 µM) | 0.039 (≈ 0.0768 µM) | ≤ 0.02 | 0.039 (≈ 0.0768 µM) | < 0.02 | 5 (≈ 9.85 µM) | ≤ 0.02 | 2.5 (≈ 4.92 µM) | 0.312 (≈ 0.615 µM) | 0.312 (≈ 0.615 µM) | < 0.02 | < 0.02 | < 0.02 | ≤ 0.02 | 0.156 (≈ 0.307 µM) | < 0.02 | – | –
2 | C/C(=C\C(=O)OCCCCCCCCS(N)(=O)=O)CC1OCC(CC2OC2C(C)C(C)O)C(O)C1O (stereo not drawn) [Example 3, 8-Sulphamoyloctyl monate A] | < 0.02 | 0.625 (≈ 1.17 µM) | 0.312 (≈ 0.582 µM) | 0.312 (≈ 0.582 µM) | 0.078 (≈ 0.146 µM) | 0.039 (≈ 0.0728 µM) | 0.039 (≈ 0.0728 µM) | < 0.02 | 5 (≈ 9.33 µM) | < 0.039 | 2.5 (≈ 4.67 µM) | 0.312 (≈ 0.582 µM) | 0.312 (≈ 0.582 µM) | 0.02 (≈ 0.0373 µM) | 0.02 (≈ 0.0373 µM) | 0.02 (≈ 0.0373 µM) | 0.02 (≈ 0.0373 µM) | 0.156 (≈ 0.291 µM) | 0.02 (≈ 0.0373 µM) | – | –
3 | C/C(=C\C(=O)OCCCS(=O)(=O)N(C)C)CC1OCC(CC2OC2C(C)C(C)O)C(O)C1O (stereo not drawn) [Example 4, 3-N,N-Dimethylsulphamoylpropyl monate A] | – | – | – | – | – | – | – | – | – | – | – | – | – | – | – | – | – | – | – | ≤ 10 | MIC [11]: 1000 µg/mL (≈ 2030 µM); MIC [12]: 500 µg/mL (≈ 1010 µM); MIC (M. suipneumoniae NB12; NB12, 144 h): 500 µg/mL (≈ 1010 µM); MIC (M. pneumoniae ATCC 15492): 5000 µg/mL (≈ 10100 µM); MIC [13]: 500 µg/mL (≈ 1010 µM); MIC [14]: 1000 µg/mL (≈ 2030 µM); MIC (M. hyorhinis ATCC 25021): 250 µg/mL (≈ 506 µM); MIC (M. suipneumoniae UCD1): 1000 µg/mL (≈ 2030 µM); MIC (M. gallisepticum S6; 144 h, M. gallisepticum S6, 6 days at 37° C., read-out: MIC): > 10000 µg/mL; MIC (M. suipneumoniae HK(2)): 1000 µg/mL (≈ 2030 µM); MIC ([15]; M. hyosynoviae ATCC 25591, 6 days at 37° C., read-out: MIC): 250 µg/mL (≈ 506 µM); MIC (M. hyorhinis ATCC 23234): 250 µg/mL (≈ 506 µM); MIC (M. suipneumoniae Str. 11; 144 h, M. suipneumoniae Str. 11, 6 days at 37° C., read-out: MIC): 500 µg/mL (≈ 1010 µM); MIC (B. subtilis ATCC 6633): No Growth; MIC (M. suipneumoniae MS16; 144 h, M. suipneumoniae MS16, 6 days at 37° C., read-out: MIC): 500 µg/mL (≈ 1010 µM); MIC (M. suipneumoniae JF435; JF435, 144 h): 1000 µg/mL (≈ 2030 µM); MIC (M. suipneumoniae LABER): 500 µg/mL (≈ 1010 µM)
4 | C/C(=C\C(=O)OC(C)CCCCCS(N)(=O)=O)CC1OCC(CC2OC2C(C)C(C)O)C(O)C1O (stereo not drawn) [Example 5, 7-Sulphamoylhept-2-yl monate A] | – | – | – | – | – | – | – | – | – | – | – | – | – | – | – | – | – | – | – | ≤ 10 | MIC ([11]; M. suipneumoniae NCTC 10110, 6 days at 37° C., read-out: MIC): 500 µg/mL (≈ 958 µM); MIC [12]: 250 µg/mL (≈ 479 µM); MIC (M. suipneumoniae NB12; 144 h, M. suipneumoniae NB12, 6 days at 37° C., read-out: MIC): 500 µg/mL (≈ 958 µM); MIC (M. pneumoniae ATCC 15492): 1000 µg/mL (≈ 1920 µM); MIC [13]: 250 µg/mL (≈ 479 µM); MIC [14]: 500 µg/mL (≈ 958 µM); MIC (M. hyorhinis ATCC 25021): 250 µg/mL (≈ 479 µM); MIC (M. suipneumoniae UCD1): 1000 µg/mL (≈ 1920 µM); MIC (M. gallisepticum S6; S6, 144 h): 2500 µg/mL (≈ 4790 µM); MIC (M. suipneumoniae HK(2)): 1000 µg/mL (≈ 1920 µM); MIC [15]: 100 µg/mL (≈ 192 µM); MIC (M. hyorhinis ATCC 23234): 250 µg/mL (≈ 479 µM); MIC (M. suipneumoniae Str. 11; STR.11, 144 h): 250 µg/mL (≈ 479 µM); MIC (B. subtilis ATCC 6633): No Growth; MIC (M. suipneumoniae MS16; MS16, 144 h): 250 µg/mL (≈ 479 µM); MIC (M. suipneumoniae JF435; 144 h, M. suipneumoniae JF435, 6 days at 37° C., read-out: MIC): 500 µg/mL (≈ 958 µM); MIC (M. dispar NCTC 10125): 100 µg/mL (≈ 192 µM); MIC (M. suipneumoniae LABER): 250 µg/mL (≈ 479 µM)
